# Laboratory results reported in patent US7041819B2, “Halogenated calixpyrroles and uses thereof” (Board of Regents, The University of Texas System, priority 1996, dated 2006).
# Tests used:
# [1] = Binding constant in wet acetonitrile
# Experimental: Binding constants vary with the solvent used for the binding study. Note that the solvent used for the data of Table 2 of Example 10 was dichloromethane whereas the solvent used for the studies herein was acetonitrile. In addition, a binding constant of 12,300 M^−1 was determined for the binding of pyrophosphate to 44 in wet acetonitrile.
# [2] = 1H and 19F NMR titration in acetonitrile-d3 (0.5% v/v D2O); type: binding; conditions: wet acetonitrile
# Excerpt: ^1H and ^19F NMR Titrations. The receptor 44, as a 0.014 M acetonitrile-d3 (0.5% v/v D2O) solution, was titrated by addition of concentrated acetonitrile-d3 (0.5% v/v D2O) solutions of the anions in question (in the form of their tetrabutylammonium salts). In order to account for dilution effects, these anion solutions also contained receptor 44 at its initial concentration. The data were fit to a 1:1 binding profile according to the method of Wilcox (in Frontiers in Supramolecular Organic Chemistry and Photochemistry; Schneider, H.-J., Dürr, H., Eds.; VCH: Weinheim, 1991) using changes in both the NH and β-F pyrrolic resonances in the ^1H and ^19F NMR spectra, respectively, that were assigned to the portion of the total receptor concentration that was considered to be monomeric. Specifically, the change in the position of the peaks initially at 7.24 ppm (^1H NMR) and −177.03 ppm (^19F NMR) were followed. Integration of the two pyrrolic NH resonances (corresponding to calix[4]pyrroles that are “free” and bound to the next receptor molecule) made it possible to estimate the relative concentration of the monomeric fraction in the acetonitrile-d3 (0.5% v/v D2O) solutions being subject to analysis. This estimated monomeric receptor concentration was used to calculate the affinity constants. […] Estimated errors were <20%.
# The presence of two different receptor forms in solution precluded the use of Job plots to analyze binding stoichiometries. […] This increased selectivity is summarized in terms of the ratio of the binding constants, R44/43. (Table 9). Separate from the issue of binding to the monomeric form, but complicating the analyses somewhat was the finding that the addition of phosphate and fluoride to wet acetonitrile solutions of 44 led to deaggregation.
# ^1H and ^19F NMR spectroscopic titrations. Receptor 46, as a 0.014 M acetonitrile-d3 (0.5% v/v D2O) solution, was titrated by addition of concentrated acetonitrile-d3 (0.5% v/v D2O) solutions of the anions in question (in the form of their tetrabutylammonium salts). In order to account for dilution effects, these anion solutions also contained receptor 46 at its initial concentration. The data were fit to a 1:1 binding profile according to the method of Wilcox (Wilcox, C. S. in Frontiers in Supramolecular Organic Chemistry and Photochemistry; Schneider, H.-J., Dürr, H., Eds.; VCH: Weinheim, 1991) using changes in both the NH and β-F pyrrolic resonances in the ^1H and ^19F NMR spectra, respectively.
# The binding properties of 46 and 48 were studied.
# [3] = Stability under acidic conditions; type: physicochemical; conditions: for stability under conditions of acid catalysis at higher temperature: 64° C., within 24 h; for stability under conditions of acid catalysis identical to those of preparation: purified samples, 24 hours, ambient temperature
# Experimental: An advantage of 44 is that in contrast to its simple all-hydrogen analogue 43 it is stable upon exposure to acidic aqueous environments (down to pH 3 or 4 for >24 hours). This makes this system particularly useful for anion recognition, binding, sensing, transport, and extraction applications described in Examples 4, 8, 10, 11, 12, and 15.
# A further advantage of the calix[n]pyrroles is that they are stable at a wide range of temperatures, especially at neutral or basic conditions. Under acidic conditions and extreme high or low temperatures, the meso linkage may degrade. A particular attribute of the fluorinated calix[n]pyrroles 44, 46, and 48 is that they are very stable under acidic conditions.
# This latter finding is consistent with compounds 46 and 48 being kinetically stable at ambient temperature but not at higher temperatures.
# [4] = 1H NMR titration in CD2Cl2; conditions: for Stability Constant, Fluoride: CD2Cl2
# [5] = 1H NMR titration in CD2Cl2; conditions: for Stability Constants, Chloride / Stability Constant, Chloride: CD2Cl2; for Stability Constants, Chloride: Table 4, tetrabutylammonium salt 0.1 M added to 10 mM receptor
# [6] = Anion binding affinity compared with parent calix[4]pyrrole; conditions: 13 and 29 vs compound 2; 14 and 28 vs compound 1
# Excerpt: These types of compounds are useful as HPLC column media since low affinity constants and fast complexation-decomplexation rates generally lead to efficient separation of substrates (see Example 10).
# Receptors with an increased anion binding ability such as 14 are useful as anion sequestering agents (e.g., in removal of phosphate and nitrate pollutants from aqueous environments) (see Example 12) or as synthons in reactions to produce further modified calix[4]pyrroles. The present inventors envision this system will be useful as a precursor to a calix[m]pyridino[n]pyrrole or a calix[m]pyridine.
# The attachment of electron-donating substituents (such as methoxy) to the β-position (carbon or C-rim of the calixpyrrole) decreases the stability constants of compound 13 relative to compound 2. However attachment of electron-withdrawing substituents (such as bromine) to the carbon-rim has increased the stability constants of compound 14 relative to compound 1.
# This increased binding affinity towards anions was not observed for the Substituted amide substituted mesooctamethylcalix[4]pyrrole 28 when compared to the compound 1. A possible reason is that the carboxy ‘tail” is not long enough to swing around and contribute to the binding of the anion.
# [7] = 1H NMR titration in CD2Cl2; type: binding; conditions: for Stability Constants, Dihydrogen phosphate: Table 4, 0.1 M salt added to 10 mM receptor, value of 28 estimated; for Stability Constant, Dibiphosphate: tetrabutylammonium salt 0.03 M added to 3 mM receptor; for Stability Constant, Dihydrogen phosphate: tetrabutylammonium salt 0.1M added to 10 mM receptor
# [8] = 1H NMR titration in CD2Cl2; type: binding; conditions: for Stability Constants, Hydrogen sulfate: Table 4, 0.1 M salt added to 10 mM receptor
# [9] = NMR titration with neutral substrates in benzene-d6; type: binding; conditions: benzene-d6 at 298 K; 1 at ca. 4 × 10^−3 M
# Excerpt: Substrate Binding in Solution. The binding of neutral molecules to calix[4]pyrrole in the solid state prompted the present inventors to quantify the binding affinities of calix[4]pyrrole to a number of hydrogenbinding neutral molecules. Table 6 illustrates the varying degrees of affinity to which calix[4]pyrrole binds to various hydrogen binding compounds.
# [10] = 1H NMR titration in CD2Cl2; type: binding; conditions: tetrabutylammonium salt 0.1M added to 10 mM receptor
# [11] = 1H NMR titration in CD2Cl2; type: binding; conditions: tetrabutylammonium salt 0.1M added to 10 mM receptor; remark: listed apart in the source
# [12] = tetrabutylammonium salt 0.03 M added to 3 mM receptor
# [13] = tetrabutylammonium salt 0.03 M added to 3 mM receptor, value of 14 estimated
# [14] = tetrabutylammonium salt 0.1M added to 10 mM receptor
# [15] = tetrabutylammonium fluoride trihydrate 0.1M added to 10 mM receptor
compound,measurement,setting,value
"CC1(C)c2[nH]c(c(F)c2F)C(C)(C)c2[nH]c(c(F)c2F)C(C)(C)c2[nH]c(c(F)c2F)C(C)(C)c2[nH]c(c(F)c2F)C(C)(C)c2[nH]c(c(F)c2F)C(C)(C)c2[nH]c(c(F)c2F)C(C)(C)c2[nH]c(c(F)c2F)C(C)(C)c2[nH]c1c(F)c2F [Compound 48, β-hexadecafluoro-meso-hexadecamethylcalix[8]pyrrole]","Stability Constant, Pyrophosphate",[1],28 000 M^−1
same,"Stability Constant, Chloride",[2],3 600 M^−1
same,stability under acidic conditions,[3],very stable
same,stability under conditions of acid catalysis at higher temperature,[3],nearly complete conversion to 44
same,stability under conditions of acid catalysis identical to those of preparation,[3],remained completely intact
meso-tetramethylcalix[4]pyrrole-p-tert-butylcalix[4]arene pseudo dimer [Compound 15],changes in the NMR spectrum on addition of tetrabutylammonium fluoride,"[4]; dichloromethane-d2, 10.0 equiv.",no changes
"CCCCNC(=O)Cc1cc2[nH]c1C(C)(C)c1ccc([nH]1)C(C)(C)c1ccc([nH]1)C(C)(C)c1ccc([nH]1)C2(C)C [Compound 28, Mono-β-butylamidocalix[4]pyrrole]","Stability Constants, Chloride",[5],405 (±10) M^−1
same,anion binding affinity relative to parent calix[4]pyrrole,[6],not observed
same,"Stability Constants, Dihydrogen phosphate",[7],80 (±15)^b M^−1
same,"Stability Constants, Hydrogen sulfate",[8],<10 M⁻¹
β-monoester-meso-octamethylcalix[4]pyrrole [Compound 10],"Stability Constant, Chloride",[5]; [12],47 (±1) M^−1
same,"Stability Constant, Fluoride",[4]; [13],1.1 (±0.2) × 10^3 M^−1
"COc1c2[nH]c(c1OC)C1(CCCCC1)c1[nH]c(c(OC)c1OC)C1(CCCCC1)c1[nH]c(c(OC)c1OC)C1(CCCCC1)c1[nH]c(c(OC)c1OC)C21CCCCC1 [Compound 13, β-Octamethoxy-meso-tetraspirocyclohexylcalix[4]pyrrole]","Stability Constant, Chloride",[5]; [12],<10 M⁻¹
same,anion binding affinity relative to parent calix[4]pyrrole,[6],decreased
same,"Stability Constant, Fluoride",[4]; [13],1.7 (±0.2) × 10^2 M^−1
same,"Stability Constant, Dibiphosphate",[7],6.5 (±0.4) × 10^2 M^−1
"CC1(C)c2ccc([nH]2)C(C)(C)c2ccc([nH]2)C(C)(C)c2ccc([nH]2)C(C)(C)c2ccc1[nH]2 [Compound 1, meso-octamethylcalix[4]pyrrole]","Ka, 1,1,3,3tetramethylurea",[9],2.2 ± 0.1 M^1
same,"Ka, 1,2dimethylimidazole",[9],5.4 ± 0.3 M^1
same,"Ka, N,N-dimethylacetamide",[9],9.0 ± 0.9 M^1
same,"Ka, N,N-dimethylformamide",[9],11.3 ± 0.8 M^1
same,"Ka, N-formylglycine ethyl ester",[9],13.3 ± 1.0 M^1
same,"Ka, acetone",[9],2.2 ± 0.2 M^1
same,"Ka, benzyl alcohol",[9],9.7 ± 0.7 M^1
same,"Ka, dimethyl sulfoxide",[9],16.2 ± 1.1 M^1
same,"Ka, ethanol",[9],10.7 ± 0.7 M^1
same,"Ka, isopropyl alcohol",[9],7.0 ± 0.4 M^1
same,"Ka, methanol",[9],12.7 ± 1.0 M^1
same,"Ka, secbutanol",[9],6.2 ± 0.4 M^1
same,"Stability Constant, Chloride",[5]; [14],350 (±5.5) M^−1
same,"Stability Constant, Fluoride",[4]; [15],17170 (±900) M^−1
same,"Stability Constant, Bromide",[10],10 (±0.5) M^−1
same,"Stability Constant, Iodide",[11],<10 M⁻¹
same,"Stability Constant, Dihydrogen phosphate",[7],97 (±3.9) M^−1
same,"Stability Constant, Hydrogen sulfate",[8]; [14],<10 M⁻¹
"CC1(C)c2[nH]c(c(Br)c2Br)C(C)(C)c2[nH]c(c(Br)c2Br)C(C)(C)c2[nH]c(c(Br)c2Br)C(C)(C)c2[nH]c1c(Br)c2Br [Compound 14, β-Octabromo-meso-octamethylcalix[4]pyrrole]","Stability Constant, Chloride",[5]; [12],4.3 (±0.6) × 10^3 M^−1
same,anion binding affinity relative to parent calix[4]pyrrole,[6],increased
same,"Stability Constant, Fluoride",[4]; [13],2.7 (±0.4) × 10^4b M^−1
same,"Stability Constant, Dibiphosphate",[7],<10 M⁻¹
"CC1(C)c2[nH]c(c(F)c2F)C(C)(C)c2[nH]c(c(F)c2F)C(C)(C)c2[nH]c(c(F)c2F)C(C)(C)c2[nH]c1c(F)c2F [Compound 44, Meso-Octamethyl-β-octafluorocalix[4]pyrrole]","Stability Constant, Pyrophosphate",[1],12300 M⁻¹
same,"Stability Constant, Chloride",[2],10700 M⁻¹
same,stability under acidic conditions,[3],very stable
"CCCCNC(=O)CCCC1(C)c2ccc([nH]2)C2(CCCCC2)c2ccc([nH]2)C2(CCCCC2)c2ccc([nH]2)C2(CCCCC2)c2ccc1[nH]2 (stereo not drawn) [Compound 29, Mono-meso-butylamidocalix[4]pyrrole]","Stability Constants, Chloride",[5],415(±45) M^−1
same,anion binding affinity relative to parent calix[4]pyrrole,[6],marked increase
same,"Stability Constants, Dihydrogen phosphate",[7],62 (±6) M^−1
same,"Stability Constants, Hydrogen sulfate",[8],<10 M⁻¹
β-diester-meso-octamethylcalix[4]pyrrole [Compound 11],interaction with chloride anion in solution,[5],interact
same,interaction with fluoride anion in solution,[4],interact
"c1cc2[nH]c1C1(CCCCC1)c1ccc([nH]1)C1(CCCCC1)c1ccc([nH]1)C1(CCCCC1)c1ccc([nH]1)C21CCCCC1 [Compound 2, meso-Tetraspirocyclohexylcalix[4]pyrrole, reference compound]","Stability Constant, Chloride",[5]; [14],117 (±4.0) M^−1
same,"Stability Constant, Fluoride",[4]; [15],3600 (±395) M^−1
same,"Stability Constant, Dihydrogen phosphate",[7],<10 M⁻¹
"CC1(C)c2[nH]c(c(F)c2F)C(C)(C)c2[nH]c(c(F)c2F)C(C)(C)c2[nH]c(c(F)c2F)C(C)(C)c2[nH]c(c(F)c2F)C(C)(C)c2[nH]c1c(F)c2F [Compound 46, β-Decafluoro-meso-decamethylcalix[5]pyrrole]","Stability Constant, Pyrophosphate",[1],25 000 M^−1
same,"Stability Constant, Chloride",[2],41 000 M^−1
same,"Stability Constant, DMSO",[2],29 (±3) M^−1
same,stability under acidic conditions,[3],very stable
same,stability under conditions of acid catalysis at higher temperature,[3],nearly complete conversion to 44
same,stability under conditions of acid catalysis identical to those of preparation,[3],remained completely intact
